Laboratory results as given in patent publication US20200069609A1 (WIGEN BIOMEDICINE TECHNOLOGY (SHANGHAI) CO., LTD., priority 2017, published 2020).

Experiments:
[1] = biological target: T1, LC3B (2-119) (Homo sapiens, UniProt Q9GZQ8); assay: Crystal complex structure of LC3B protein and small molecule; conditions: crystal soaked with compound 1-5 mM
T1 construct: GST (N, cleaved yes); made in house
Experimental: A vacant protein crystal of LC3B (2-119) (SEQ ID NO: 4) was obtained by the sit-drop method, and then the crystal was taken out and soaked in a bath containing Compound A with a final concentration of 1-5 mM. The diffraction data were collected at the 19U1 line station of Shanghai Synchrotron Radiation Facility. And the diffraction data were integrated by XDS software and then compressed by Aimless module in CCP4. The LC3B protein structure with a PDB number of 3VTU was used as a template to perform molecular replacement by Phaser module to obtain the initial phase information, and then final refinement was performed by PHENIX and COOT.

[2] = biological target: T2, LC3B (1-125) (Homo sapiens, UniProt Q9GZQ8); assay: Protein thermal shift assay; assay type: binding; conditions: protein 4 μM, compound 40 μM
T2 construct: GST (N, cleaved yes); made in house
Experimental: (§1) GST-LC3B (1-125) (SEQ ID NO: 2) and each mutant protein were expressed by IPTG induction in DE3 competent cells at 16° C. After collecting and resuspending DE3 competent cells, the cells were sonicated and centrifuged. The resulted supernatant was hanged on the column (GSTrap FF, GE), followed by eluting with glutathione-containing eluant, and then the target protein was produced by gel filtration chromatography. This fusion protein was used directly in the fluorescence polarization assay. The proteins used in the protein thermal shift assay, mass spectrometry, and protein crystallization experiments were produced by PP enzyme or thrombin digestion and the following gel filtration chromatography to the GST-fusion protein obtained by the above method.
(§2) The protein thermal shift assay is used to test the effect of compounds on the thermodynamic stability of proteins via the Quant Studio 6 Flex Real-Time PCR system. Protein LC3B (1-125) (SEQ ID NO: 3) and each mutant protein (SEQ ID NO: 7-15) (final concentration 4 μM), environmentally sensitive dye (5×SYPRO orange, Invitrogen) and compound (final concentration 40 μM) were mixed in the buffer solution (50 mM HEPES pH 7.5, 1 mM DTT) to a total volume of 20 μL. The sample was heated from 25° C. to 95° C. with a heating rate of 3%. Changes in fluorescence intensity were monitored and each melting temperature (Tm), represented by AT in the unit of ° C., was calculated by Protein Thermal Shift Software 1.1 (ABI).

[3] = biological target: T3, GST-LC3B (Homo sapiens, UniProt Q9GZQ8); assay: Fluorescence polarization (FP) assay, GST-LC3B with FITC-labeled peptide; assay type: binding; conditions: GST-LC3B 180 nM, FITC-labeled peptide 18 nM
T3 construct: This fusion protein was used directly in the fluorescence polarization assay; made in house
Experimental: as §1
Recombinant protein GST-LC3B (final concentration 180 nM) (SEQ ID NO: 2) and N-terminal FITC-labeled peptide (SEQ ID NO: 5, final concentration 18 nM) were placed in FP buffer solution (50 mM HEPES pH 7.5, 0.1 mg/ml BSA and 1 mM DTT), into which the compound gradually diluted by the FP buffer was added, then the resulted mixture was incubated in dark at 25° C. Fluorescence polarization values were monitored (PerkinElmer Envision, the wavelength of the […]) and the IC50 values were calculated by the GraphPad Prism 6.0 program.
Representation of the IC50 value of the compounds: “[…]<IC50≤1 mM” is considered as having low activity (+) against LC3B. “15 μM<<IC50≤100 μM” of the compound is considered as having moderate activity (++) against LC3B. “3 μM<IC50≤15 μM” is considered as having high activity (+++) against LC3B. “IC50≤3 μM” is considered as having higher activity (++++) against LC3B.

[4] = system: LC3B mutants K8A, K30A, K39A, K42A, K51A, K65A, K103A, K122A; assay: Protein thermal shift assay on lysine-to-alanine mutants other than K49A; assay type: binding, human; conditions: all lysine-to-alanine mutants except K49A; protein 4 μM, compound 40 μM
Experimental: as §2
(§3) LC3B totally has 9 lysines, and for investigating the site selectivity of Compound A, all the 9 lysines were mutated to alanine (K8A, K30A, K39A, K42A, K49A, K51A, K65A, K103A, K122A; SEQ ID NO:7-15).

[5] = biological target: T4, LC3B K49A mutant (Homo sapiens, UniProt Q9GZQ8, K49A); assay: Protein thermal shift assay on K49A mutant; assay type: binding
T4 construct: GST (N, cleaved yes); made in house
Experimental: as §2, §3

[6] = system: Hela cells; assay: Immunofluorescence staining of autophagosomes in Hela cells; assay type: cell-based; conditions: 30 μM or 100 μM for 12 h, then serum-free starvation 24 hours; compared with control group
Experimental: For further investigating the effects of compounds on cell autophagosomes, Hela cells were seeded onto glass coverslips in 6-well plate and cultured until the cells being in good conditions, which were treated with 30 μM or 100 μM of Compound B for 12 h, then replaced to a serum-free medium and starved for 24 hours. The cells were pre-cooled for 10 minutes, then punched with 0.2% Triton X-100 and stood at room temperature for 10 minutes. Next, the cells were blocked with PBS containing 2.5% BSA and incubated overnight with a 4 degree anti-LC3B primary antibody, after which the primary antibody was recognized with a fluorescent secondary antibody, the nuclei were stained with DAPI and photographed under a microscope.

[7] = biological target: T2, LC3B (1-125); assay: Mass spectrometry of LC3B incubated with compound; conditions: trypsin digest, b and y type ions
Experimental: For further verifying the covalent binding, LC3B (1-125) (SEQ ID NO: 3) protein was separately incubated with compounds B, C and D for mass spectrometry.
After incubating the compound and protein for a given period of time, the product was separated by gel electrophoresis, and the protein having an appropriate size was digested by trypsin. The resulting polypeptide was dissolved and loaded onto a C18 reverse-phase column coupled to an EASY-nLC 1000 system. The polypeptide was eluted to perform mass spectrometry and Mascot search.

ΔT (melting temperature shift) ([2]; Table 1) [°C] | IC50 ([3]; Table 1, 25° C.) [µM] | ΔT (melting temperature shift) ([2]; Table 2, comparative compounds) [°C] | IC50 ([3]; Table 2, comparative compounds) [µM] | Molecule | also measured
9.83 | 4.83 | – | – | 5-phenyl-2- (((2-(4-(benzoyl) piperazin-1-yl) ethyl)amino) methylene) cyclohexane-1,3- dione [G] | –
– | – | – | – | Cc1ccc(NC(=O)CN2CCN(CCNCC3C(=O)CC(c4ccc(C)cc4)CC3=O)CC2)cc1 (stereo not drawn) [Compound B] | cell autophagosomes (anti-LC3B immunofluorescence) [6]: cell autophagosomes accumulated
2.87 | 28.8 | – | – | NC=C1C(=O)CC(c2ccccc2)CC1=O (stereo not drawn) [Compound C, 2-(aminomethyl-ene)-5-phenyl-cyclohexane-1,3-dione] | covalent modification of LC3B by mass spectrometry [7]: covalently modified the lysine at position 49 in LC3B
10.82 | 1.46 | – | – | COc1ccc(C2CC(=O)C(=CN(C)C)C(=O)C2)cc1 (stereo not drawn) [Compound D, 2-((Dimethylamino)methyl-ene)-5-(4-methoxyphenyl) cyclohexane-1,3-dione] | covalent modification of LC3B by mass spectrometry [7]: covalently modified the lysine at position 49 in LC3B
13.4 | 0.51 | – | – | O=C1CC(c2cccc3[nH]ccc23)CC(=O)C1=CO (stereo not drawn) [Compound I, 2-(hydroxy-methylene)-5-(1H-indol-4-yl)cyclohexane-1,3-dione] | covalent linkage in crystal complex [1]: covalently linked to the lysine residue (ε-amino group) at position 49 in LC3B
– | 6.54 | – | – | CCNC(=S)N1CCN(CCNC=C2C(=O)CC(c3ccccc3)CC2=O)CC1 (stereo not drawn) [F, 5-phenyl-2-(((2-(4-(ethyl-aminothiocarbonyl)piperazin-1-yl)ethyl)amino)methylene) cyclohexane-1,3-dione] | –
– | 5 | – | – | Cc1ccc(C2CC(=O)C(=CNCCN3CCN(C(=O)C(C)C)CC3)C(=O)C2)cc1 (stereo not drawn) [H] | –
– | – | 0 | 46 | CC1=CCC(C(=O)O)C(C(=O)Nc2ccc(-c3nc4ccc(C)cc4s3)cc2)C1 (stereo not drawn) [compound 1, reference compound] | –
– | – | 0 | 50 | Cc1ccc(C(=O)O)c(C(=O)Nc2ccc(-c3nc4ccc(C)cc4s3)cc2)c1 [compound 2, reference compound] | –
– | – | 2.1 | 28 | CCOc1c(I)cc(/C=N\Nc2ccc(C(=O)O)cc2)cc1OC [compound 3, reference compound] | –
– | – | 1.8 | 28 | Cc1cc(NS(=O)(=O)c2ccc(NC(=O)c3ccc(C(=O)Nc4ccc(S(=O)(=O)Nc5cc(C)on5)cc4)cc3)cc2)no1 [compound 4, reference compound] | –
– | – | 0 | 47 | Cc1ccc2c(C)c(C(=O)Nc3ccc(S(=O)(=O)Nc4onc(C)c4C)cc3)oc2c1 [compound 6, reference compound] | –
– | – | – | – | LBP2: positive control polypeptide, LBP2 (SEQ ID NO: 6) (GGDDDWTHLSSKEVD; LBP2) [reference compound] | thermal shift of LC3B mutants [4]: significant heat shift; thermal shift of LC3B K49A mutant ([5]; K49A mutant, protein 4 μM, compound 40 μM): significant heat shift

Molecule | ΔT (melting temperature shift) ([2]; Table 1) [°C] | IC50 ([3]; Table 1, 25° C.) [µM] | ΔT (melting temperature shift) ([2]; Table 2, comparative compounds) [°C] | IC50 ([3]; Table 2, comparative compounds) [µM] | also measured
2-((Dimethyl amino)methyl- ene)-5-(tlhio- phen-2-yl)cyclo- hexane-1,3- dione [Compound A] | 10.37 | 1.56 | – | – | covalent linkage in crystal complex [1]: covalently linked to the lysine residue (ε-amino group) at position 49 in LC3B; thermal shift of LC3B mutants [4]: significant thermal shift; site selectivity for lysine at position 49 in LC3B ([5]; concluded from thermal shift of the 9 lysine mutants): selectively modify the lysine at position 49
Cc1ccc(NC(=O)CN2CCN(CCNC=C3C(=O)CC(c4ccccc4)CC3=O)CC2)cc1 (stereo not drawn) [E] | 10.21 | 5 | – | – | –
